Results published in patent US20090023804A1, “ELECTROCHEMICAL METHODS FOR REDOX CONTROL TO PRESERVE, STABILIZE AND ACTIVATE COMPOUNDS” (priority 2006, published 2009).

Key:
Type in all cases: physicochemical
[1] = Reduction potential of model compounds; details: pH 7 Buffer solution versus Normal Hydrogen Electrode (NHE)
Description: The redox potential of the solution is measured by open cell potential. […] Cyclic voltammetry can be used to identify the various oxidation states and redox potentials for future manipulation of redox state. Additionally, FIG. 5 in the present application provides a working example of this assay by depicting the cyclic voltammetry trace for hypericin. As shown, there are multiple peaks in the range of 0-2 volts, that are the result of the different redox states of hypericin. This is manipulated according to the preferred or desired redox state to be achieved.
Once the redox potential of the preparation is measured, the redox state may be adjusted to the preferred or desired condition at any stage as previously described.
The multiple oxidation states of the molecule of interest can be determined electrochemically by cyclic voltammetry. The first phase involves applying an excessive positive potential (oxidizing potential) and oxidizing all the species present to one form. Then the applied voltage is stepped down in increments while monitoring current. When the mid-point redox potential of a reaction is approached, molecules begin to be reduced, causing current through the circuit. After returning all molecules to the reduced form, the voltage is increased and the redox potentials of the reaction(s) are recorded. […]

[2] = Stability of electrochemically oxidized EGCG solutions after pH modification (UV-visible spectra)
From the text: Solutions were pH modified following electrochemical oxidation to observe stability. […] These samples were open to air, and no other precautions were taken to prevent oxidation by atmospheric oxygen.

[3] = Electrochemical oxidation of EGCG solutions at pH 6.0, followed by UV-visible absorbance and open circuit potential
From the text: An electrochemical cell was fabricated using a fine porosity glass frit in 1″ diameter glass tubing. The electrochemical cell houses the counter electrode and keeps the Ag/AgCl reference electrode and platinum working electrode separate from the counter electrode. This addition to the system allowed the preparation of bulk solution. The working electrode and reference electrode compartment was continuously stirred using a small stir bar and a magnetic stirrer to minimize gradient effects at the working electrode.
The EGCG solutions were oxidized using a positive potential to a visual end point. UV-visible spectral data were collected during these experiments, including the absorbance at 270 nm and 320 nm, corresponding to the phenol and quinone forms of EGCG, respectively. In addition, the open cell potential was recorded as experiments progressed. The active redox potentials and experimental endpoints were determined based on current and visual color changes.
Due to solution evaporation over time, the ratio of absorbance at 320 nm divided by the absorbance at 270 nm was determined in order to account for overall absorption increases. […] In addition, the visual change in solution color from clear to yellow and pink was also monitored as an indicator of degree of oxidation.
Stirred EGCG solutions in 0.1 M phosphate buffer with 0.1 M KCl at pH 6.0 were monitored. […]

O=c1c(O)c(-c2ccc(O)c(O)c2)oc2cc(O)cc(O)c12 [Quercitin]
Reduction Potential [1]: 120 mV

O=C(O[C@@H]1Cc2c(O)cc(O)cc2O[C@@H]1c1cc(O)c(O)c(O)c1)c1cc(O)c(O)c(O)c1 [Epigallocatechin gallate, epigallocatechin gallate]
stability of pH-modified sample after electrochemical oxidation ([2]; EGCG solution pH 6.26, 1500 mV for 11.4 hours, then pH 8.43, open to air, after 7 days): relatively stable after 7 days
stability of pH-modified samples after electrochemical oxidation ([2]; EGCG solution pH 6.26, 1500 mV for 11.4 hours, then pH modified, open to air, after one day): stable after one day
oxidation of control samples ([2]; control samples at pH 6.26, no potential): did not oxidize
change in absorbance at 270 and 320 nm ([3]; after seven hours, 800 mV solution and control solution): no change
stability of electrochemically-induced changes (320 nm absorbance over time) ([3]; solutions left with no current after 68 h, until 120 h): stable for over two days

O=C(O)/C=C/c1ccc(O)c(O)c1 [Caffeic Acid]
Reduction Potential [1]: 120 mV
